Measured values from US20230104315A1, “METHOD OF IDENTIFYING EXTRACHROMOSOMAL DNA SIGNATURES” (Boundless Bio, Inc., priority 2020, published 2023).

Test system: SNU16 cells
Experiment: ecDNA copy number from exome data of SNU16 cells under sequential infigratinib and erlotinib treatment
Type: cell-based, human
Details: FIG. 19; for MYC and PDHX ecDNA copy numbers: 1 μM infigratinib up to 12 weeks, followed by 5 μM erlotinib up to four weeks; for EGFR ecDNA copy number: 1 μM infigratinib, followed by 5 μM erlotinib
Procedure: Exomes were prepared using Human Core Exome kit (Twist Bioscience) and sequenced on an Illumina platform with 2×150 paired-end read configuration.
Sequencing data was processed according to genome analysis tool kit (GATK) recommended practices (see gatk.groadinstitute.org/hc/en-us/articles/30035894731-Somatic-short-variant-discovery-SVNs-Indels-). Briefly, raw reads were aligned to the human genome (version GRCh37) using Burrows-Wheeler aligner (BWA) […] exact match (MEM). Small somatic variations were then extracted using Mutect2 (GATK v4.1.9.0) and filtered using FilterMutectCalls.
A culture of SNU16 cells was subjected to a sequence of treatments, starting with infigratinib and followed with erlotinib. Exome data was obtained from these cells at various time points during this experiment: before treatment with infigratinib, two weeks into treatment with 1 μM infigratinib, after 12 weeks of treatment with 1 μM infigratinib, before treatment with erlotinib, two weeks into treatment with 5 μM erlotinib, and four weeks into treatment with 5 μM erlotinib. VCF files produced by GATK Mutect2 were used to calculate rates of substitutions, insertions, and deletions in one million nucleotide-long genomic windows over the entire autosomal genome. Mean coverage depth was estimated by averaging depth for all mutations in that particular genomic window as reported in the VCF file.

SMILES | MYC and PDHX ecDNA copy numbers | EGFR ecDNA copy number | FGFR2 ecDNA copy number (during treatment with 1 μM infigratinib)
C#Cc1cccc(Nc2ncnc3cc(OCCOC)c(OCCOC)cc23)c1 [erlotinib] | mostly stable | went back down | 
CCN1CCN(c2ccc(Nc3cc(N(C)C(=O)Nc4c(Cl)c(OC)cc(OC)c4Cl)ncn3)cc2)CC1 [infigratinib] | mostly stable | dramatically increased | moderately decreased
